IC50 and inhibition data for 20 compounds are collected here from US11613531B2, “Inhibitors of RHO associated coiled-coil containing protein kinase” (Kadmon Corporation, LLC, priority 2017, dated 2023).

Experiment [1] has as its target Recombinant ROCK1 (amino acids 1-535) (Homo sapiens (Human), UniProt Q13464). As to the kind of experiment: Z′-Lyte kinase assay, ROCK1. Type of experiment: biochemical. As to conditions: for inhibition at 0.5 µM: 0.5 μM compound, read-out: ROCK1 % inh. @ [conc]. The procedure, abridged: (§1)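 IC50s derive from nonlinear curve fits over a 9-point, 2-fold dilution series, with single-point inhibition at 1 μM expressed relative to DMSO. Activity of truncated human ROCK1 (residues 1-535) and ROCK2 (residues 1-552) measured with the Z′-Lyte kinase format.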

Experiment [2] deals with Recombinant ROCK2 (amino acids 1-552) (Homo sapiens (Human), UniProt O75116). As to the kind of experiment: Z′-Lyte kinase assay, ROCK2. Type of experiment: biochemical. As to conditions: for inhibition at 1 µM: 1 μM compound; for inhibition at 1 µM / inhibition at 0.5 µM: read-out: ROCK2 % inh. @ [conc]; for inhibition at 0.5 µM: 0.5 μM compound. The procedure, abridged:
as §1

The subject of experiment [3] is ppMlc (T18/S19) levels in A7R5 cells. As to the kind of experiment: A7R5 in-cell ELISA (pMLC). Type of experiment: cell-based, Rat. As to conditions: Rattus norvegicus, A7R5, A7R5 cells; for inhibition at 10 µM: 10 μM compound; for inhibition at 10 µM / inhibition at 1 µM: read-out: pMLC % inh A7R5 @ [conc]; for inhibition at 1 µM: 1 μM compound. The gist of the method: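 Cellular IC50 came from a nonlinear regression fit of ppMlc (T18/S19) signal, read by colorimetric in-cell ELISA on fixed cells. Rat A7R5 aortic smooth muscle cells had been exposed for 90 min to compounds in 9-point 2-fold serial dilution, 24 h after seeding.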
In general terms: An ELISA detects its analyte on a solid surface through an enzyme-linked reagent.

Experiment [4] has as its system human ACTA2 gene promoter luciferase reporter in NIH3T3 cells. As to the kind of experiment: NIH3T3 Acta2-promoter driven-luciferase assay. Type of experiment: cell-based. As to conditions: read-out: NIH3T3 Acta2-luc, IC50. The gist of the method: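 NIH3T3 cells stably carrying a human ACTA2 promoter (−1000-1 bp)-luciferase reporter, grown to confluence, treated 24 hr with compound plus TGFβ1 at 9-point serial dilution. Luciferase read after lysis; IC50 by nonlinear regression.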

The mark [5] stands for this setting: 9 points 2-fold serial dilution.
Where [6] appears, read: NIH3T3, 24 h, NIH3T3 cells, plus TGFβ1 for 24 hr.
Where [7] appears, read: NIH3T3, 24 h, with TGFβ1, 24 hr.

SMILES strings stand for the structures. Read-outs that look alike come from different tables or passages of the source.

Sequence of Recombinant ROCK2 (amino acids 1-552) (O75116 1-552): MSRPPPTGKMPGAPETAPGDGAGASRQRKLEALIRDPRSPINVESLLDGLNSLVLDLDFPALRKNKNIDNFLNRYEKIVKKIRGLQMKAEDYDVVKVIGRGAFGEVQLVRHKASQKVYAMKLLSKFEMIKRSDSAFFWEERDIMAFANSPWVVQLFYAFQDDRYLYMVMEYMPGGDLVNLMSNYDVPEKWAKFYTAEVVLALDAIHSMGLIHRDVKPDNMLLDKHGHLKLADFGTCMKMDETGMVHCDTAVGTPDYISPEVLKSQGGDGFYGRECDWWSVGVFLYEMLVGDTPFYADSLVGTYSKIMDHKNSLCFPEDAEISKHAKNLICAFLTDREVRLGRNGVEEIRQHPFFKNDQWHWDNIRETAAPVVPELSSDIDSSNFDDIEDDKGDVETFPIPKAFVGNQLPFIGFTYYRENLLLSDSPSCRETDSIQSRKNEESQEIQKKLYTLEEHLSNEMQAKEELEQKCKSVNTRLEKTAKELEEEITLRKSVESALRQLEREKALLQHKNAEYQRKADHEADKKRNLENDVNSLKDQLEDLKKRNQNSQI
Sequence of Recombinant ROCK1 (amino acids 1-535) (Q13464 1-535): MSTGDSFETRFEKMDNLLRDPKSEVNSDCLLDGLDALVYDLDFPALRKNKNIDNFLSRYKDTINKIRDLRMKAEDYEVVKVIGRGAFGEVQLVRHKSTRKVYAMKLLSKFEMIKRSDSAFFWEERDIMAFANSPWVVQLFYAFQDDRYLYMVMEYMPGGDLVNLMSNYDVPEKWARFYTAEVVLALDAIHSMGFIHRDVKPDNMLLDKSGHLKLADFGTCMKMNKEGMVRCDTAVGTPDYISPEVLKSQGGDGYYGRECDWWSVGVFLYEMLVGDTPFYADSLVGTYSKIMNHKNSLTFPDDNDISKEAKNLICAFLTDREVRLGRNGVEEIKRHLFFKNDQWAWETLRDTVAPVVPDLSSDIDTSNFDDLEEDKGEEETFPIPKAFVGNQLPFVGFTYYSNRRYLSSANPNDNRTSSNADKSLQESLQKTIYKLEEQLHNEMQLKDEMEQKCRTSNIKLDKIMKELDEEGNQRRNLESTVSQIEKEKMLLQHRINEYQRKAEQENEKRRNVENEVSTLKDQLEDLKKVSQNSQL

For `c1cc(Nc2ccc3[nH]ncc3c2)nc(N2C3CNCC2C3)n1` [Example 200, N-(2-(3,6-diazabicyclo[3.1.1]heptan-6-yl)pyrimidin-4-yl)-1H-indazol-5-amine], the IC50 was 0.028 µM in experiment [1] (setting [5]), 0.0016 µM in experiment [2] (setting [5]), 275 nM in experiment [3] (ppMlc (T18/S19)) and 1.6 µM in experiment [4] (setting [6]). In experiment [3], the inhibition at 10 µM amounted to 49.8%.
On to `c1cc(Nc2ccc3[nH]ncc3c2)nc(N2CC3CC2CN3)n1` (centres unmarked) [Example 201, N-(2-(2,5-diazabicyclo[2.2.1]heptan-2-yl)pyrimidin-4-yl)-1H-indazol-5-amine], for which the IC50 in experiment [1] (setting [5]) came out at 0.037 µM; in experiment [2] (setting [5]), 0.027 µM; in experiment [3] (ppMlc (T18/S19)) it was 168 nM; in experiment [4] (setting [6]) it was 1.64 µM. Further, in experiment [3], the inhibition at 1 µM stood at 50.1%.
Take `Cc1cc(Nc2ccc3[nH]ncc3c2)nc(N2CCNC(C)C2)n1` (centres unmarked) [Example 204, N-(6-methyl-2-(3-methylpiperazin-1-yl)pyrimidin-4-yl)-1H-indazol-5-amine]: the IC50 came to 0.02 µM in experiment [1] (setting [5]), 0.085 µM in experiment [2] (setting [5]), 231 nM in experiment [3] (ppMlc (T18/S19)) and 1.78 µM in experiment [4] (setting [6]). The inhibition at 10 µM in experiment [3] was found to be 70%.
As to `Cc1cc(Nc2ccc3[nH]ncc3c2)nc(N2CCNCC2C)n1` (centres unmarked) [Example 207, N-(6-methyl-2-(2-methylpiperazin-1-yl)pyrimidin-4-yl)-1H-indazol-5-amine], the half-inhibitory concentration (IC50) in experiment [1] (setting [5]) was 0.041 µM; in experiment [2] (setting [5]), 0.104 µM; in experiment [3] (ppMlc (T18/S19)), 351 nM; in experiment [4] (setting [6]), 1.26 µM. Also, the inhibition at 1 µM in experiment [2] amounted to 91%. In addition, in experiment [3], the inhibition at 10 µM was determined as 52.3%.
Consider `Cc1cc(Nc2ccc3[nH]ncc3c2)nc(N2C3CCC2CNC3)n1` [Example 209, N-(2-(3,8-diazabicyclo[3.2.1]octan-8-yl)-6-methylpyrimidin-4-yl)-1H-indazol-5-amine], for which the IC50 in experiment [1] (setting [5]) is 0.005 µM; in experiment [2] (setting [5]), 0.034 µM; in experiment [3] (ppMlc (T18/S19)) it was 47 nM; in experiment [4] (setting [6]) it was 0.332 µM. In addition, the inhibition at 1 µM in experiment [3] was 53.2%.
For `Cc1cc(Nc2ccc3[nH]ncc3c2)nc(N2C3CNCC2C3)n1` [Example 213, N-(2-(3,6-diazabicyclo[3.1.1]heptan-6-yl)-6-methylpyrimidin-4-yl)-1H-indazol-5-amine], the IC50 in experiment [1] (setting [5]) stood at 0.0002 µM; in experiment [2] (setting [5]) it was 0.0016 µM; in experiment [3] (ppMlc (T18/S19)), 60 nM; in experiment [4] (setting [6]) it was 0.23 µM. The figures for the inhibition at 1 µM in experiment [2] and in experiment [3] were 101% and 34%, respectively.
For the compound `Fc1cnc(N2CCNCC2)nc1Nc1ccc2[nH]ncc2c1` [Example 214, N-(5-fluoro-2-(piperazin-1-yl)pyrimidin-4-yl)-1H-indazol-5-amine], the 50% inhibitory concentration (IC50) in experiment [1] (setting [5]) turned out to be 0.038 µM; in experiment [2] (setting [5]), 0.026 µM; in experiment [3] (ppMlc (T18/S19)), 323 nM; in experiment [4] (setting [6]), 1.25 µM. Besides, the inhibition at 10 µM in experiment [3] came to 63%.
Take `Fc1cnc(N2CCCNCC2)nc1Nc1ccc2[nH]ncc2c1` [Example 215, N-(2-(1,4-diazepan-1-yl)-5-fluoropyrimidin-4-yl)-1H-indazol-5-amine]: the IC50 was determined as 0.04 µM in experiment [1] (setting [5]); 0.037 µM in experiment [2] (setting [5]); 201 nM in experiment [3] (ppMlc (T18/S19)); 1.22 µM in experiment [4] (setting [6]); 1.78 µM in experiment [4] (NIH3T3 cells, plus TGFβ1 for 24 hr). Further, the inhibition at 10 µM in experiment [3] was found to be 68.5%.
`Fc1cnc(N2CC3CCC(C2)N3)nc1Nc1ccc2[nH]ncc2c1` [Example 217, N-(2-(3,8-diazabicyclo[3.2.1]octan-3-yl)-5-fluoropyrimidin-4-yl)-1H-indazol-5-amine]: the IC50 in experiment [1] (setting [5]) was 0.006 µM; in experiment [2] (setting [5]), 0.028 µM; in experiment [3] (ppMlc (T18/S19)) it was 127 nM; in experiment [4] (setting [6]), 0.963 µM. Further, the inhibition at 1 µM in experiment [3] was 51.2%.
With `CC1CNCCN(c2ncc(F)c(Nc3ccc4[nH]ncc4c3)n2)C1` (centres unmarked) [Example 218, N-(5-fluoro-2-(6-methyl-1,4-diazepan-1-yl)pyrimidin-4-yl)-1H-indazol-5-amine], the IC50 in experiment [1] (setting [5]) turned out to be 0.065 µM; in experiment [3] (ppMlc (T18/S19)) it was 430 nM; in experiment [4] (setting [6]), 6.11 µM. In addition, the inhibition at 1 µM in experiment [2] came out at 99.5%; in experiment [3] it was 53%.
For `Fc1cnc(N2CC3CC2CN3)nc1Nc1ccc2[nH]ncc2c1` (centres unmarked) [Example 219, N-(2-(2,5-diazabicyclo[2.2.1]heptan-2-yl)-5-fluoropyrimidin-4-yl)-1H-indazol-5-amine], the IC50 in experiment [1] (setting [5]) came to 0.018 µM; in experiment [2] (setting [5]), 0.041 µM; in experiment [3] (ppMlc (T18/S19)) it was 77 nM; in experiment [4] (setting [6]) it was 0.613 µM. Further, the inhibition at 1 µM in experiment [3] amounted to 46.6%.
The corresponding values for `Fc1cnc(N2C3CNCC2C3)nc1Nc1ccc2[nH]ncc2c1` [Example 220, N-(2-(3,6-diazabicyclo[3.1.1]heptan-6-yl)-5-fluoropyrimidin-4-yl)-1H-indazol-5-amine] are 0.0031 µM, 0.0059 µM, 74 nM, 0.167 µM and 45.1%.
With `CC1CNCCN(c2nccc(Nc3ccc4[nH]ncc4c3)n2)C1` (centres unmarked) [Example 237, N-(2-(6-methyl-1,4-diazepan-1-yl)pyrimidin-4-yl)-1H-indazol-5-amine], the IC50 in experiment [1] (setting [5]) came to 0.063 µM; in experiment [2] (setting [5]) it was 0.104 µM; in experiment [3] (ppMlc (T18/S19)), 423 nM; in experiment [4] (setting [6]), 2.35 µM. The inhibition at 10 µM in experiment [3] stood at 68.2%.
For `Cc1nc(N2C3CCC2CNC3)nc(Nc2ccc3[nH]ncc3c2)c1F` [Example 302, N-(2-(3,8-diazabicyclo[3.2.1]octan-8-yl)-5-fluoro-6-methylpyrimidin-4-yl)-1H-indazol-5-amine], the inhibition at 0.5 µM in experiment [1] was 99%; in experiment [2], 98%. The IC50 in experiment [2] came out at 0.0022 µM; in experiment [3], 35 nM; in experiment [4] (setting [7]), 0.229 µM.
Take `CC(=O)N1Cc2nc(N3C4CCC3CNC4)nc(Nc3ccc4[nH]ncc4c3)c2C1` [Example 314, 1-(4-((1H-indazol-5-yl)amino)-2-(3,8-diazabicyclo[3.2.1]octan-8-yl)-5,7-dihydro-6H-pyrrolo[3,4-d]pyrimidin-6-yl)ethan-1-one]: the inhibition at 0.5 µM in experiment [1] was found to be 81%; in experiment [2] it was 94%. Moreover, the IC50 is 0.08 µM in experiment [2], above 5000 nM in experiment [3] and above 5 µM in experiment [4] (setting [7]).
Consider `c1cc(-c2cn[nH]c2)ccc1Nc1nc(N2C3CNCC2C3)nc2c1COC2` [Example 316, N-(4-(1H-pyrazol-4-yl)phenyl)-2-(3,6-diazabicyclo[3.1.1]heptan-6-yl)-5,7-dihydrofuro[3,4-d]pyrimidin-4-amine], for which the values for the inhibition at 0.5 µM in experiment [1] and in experiment [2] were 90% and 85%, respectively. The IC50 was 0.027 µM in experiment [2], 2420 nM in experiment [3] and above 10 µM in experiment [4] (setting [7]).
Consider `c1cc(-c2cn[nH]c2)ccc1Nc1nc(N2C3CNCC2C3)nc2c1COCC2` [Example 317, N-(4-(1H-pyrazol-4-yl)phenyl)-2-(3,6-diazabicyclo[3.1.1]heptan-6-yl)-7,8-dihydro-5H-pyrano[4,3-d]pyrimidin-4-amine], for which the results for the inhibition at 0.5 µM in experiment [1] and in experiment [2] were 70% and 75%, respectively. Besides, the IC50 is 0.038 µM in experiment [2], above 10000 nM in experiment [3] and above 10 µM in experiment [4] (setting [7]).
Consider `Oc1nc(N2C3CCC2CNC3)nc(Nc2ccc3[nH]ncc3c2)c1F` [Example 320, 6-((1H-indazol-5-yl)amino)-2-(3,8-diazabicyclo[3.2.1]octan-8-yl)-5-fluoropyrimidin-4-ol], for which the IC50 in experiment [1] is 0.0087 µM; in experiment [2], 0.018 µM; in experiment [3], above 5000 nM; in experiment [4] (setting [7]), above 5 µM. The inhibition at 0.5 µM in experiment [1] came out at 95%; in experiment [2] it was 97%.
Turning to `COc1nc(N2C3CCC2CNC3)nc(Nc2ccc3[nH]ncc3c2)c1Cl` [Example 321, N-(2-(3,8-diazabicyclo[3.2.1]octan-8-yl)-5-chloro-6-methoxypyrimidin-4-yl)-1H-indazol-5-amine], the inhibition at 0.5 µM in experiment [1] came out at 98%; in experiment [2], 100%. For the same compound, the 50% inhibitory concentration (IC50) in experiment [2] came out at 0.008 µM; in experiment [3], 74 nM; in experiment [4] (setting [7]) it was 0.114 µM.
For the compound `CN(C)c1cc(Nc2ccc3[nH]ncc3c2)nc(N2C3CCC2CNC3)n1` [Example 336, 2-(3,8-diazabicyclo[3.2.1]octan-8-yl)-N^4-(1H-indazol-5-yl)-N^6,N^6-dimethylpyrimidine-4,6-diamine], the inhibition at 0.5 µM came out at 99% in experiment [1] and 103% in experiment [2]. The results for the IC50 in experiment [2], in experiment [3] and in experiment [4] (setting [7]) were 0.0036 µM, 25 nM and 0.116 µM, respectively.

One may read the IC50 as the concentration that gives 50% inhibition.
